{"source": "patent US20090088449A1", "about": "“4-ACYLAMINOPYRIDINE DERIVATIVE MEDIATED NEUROGENESIS” (MITSUBISHI TANABE PHARMA CORPORATION, priority 2006, published 2009)", "key": {"Human Neural Stem Cells [1]": {"test_system": "Human Neural Stem Cells", "assay": "MKC-231 in combination with an AMPA agonist, neuronal differentiation of human neural stem cells", "format": "cell-based", "details": "for EC50: Homo sapiens, Neural stem cell", "description": "FIG. 4 is a dose-response curve showing enhancement of the effects of the agent MKC-231 on neuronal differentiation by combination with an AMPA agonist (AMPA). Data is presented as the percentage of the neuronal positive control, with basal media values subtracted.\nFIG. 6 is the average does response curve of multiple experiments (N=6) showing enhancement of the effects of the agent MKC-231 on neuronal differentiation by combination with affixed concentration of AMPA agonist (0.32 μM AMPA). […] Data is presented as the percentage of the neuronal positive control, with basal media values subtracted.\nExperiments with various concentrations of MKC-231 alone or with 0.316 μM of an AMPA agonist (AMPA) were carried out generally as described in Example 1 for neuronal differentiation. […] The data also indicate that MKC-231 apparently exerts some of its neurogenic effect as an AMPA potentiator or sensitizer. Also see FIG. 6 relating to BCI-540 in combination with AMPA and neuronal differentiation."}, "Human Neural Stem Cells [2]": {"test_system": "Human Neural Stem Cells", "assay": "MKC-231 in combination with an AMPA antagonist (NBQX), neuronal differentiation of human neural stem cells", "format": "cell-based", "description": "FIG. 7 is a dose-response curve showing inhibition of the effects of the agent MKC-231 on neuronal differentiation by combination with an AMPA antagonist (NBQX). Data is presented as the percentage of the neuronal positive control, with basal media values subtracted.\nExperiments with various concentrations of MKC-231 alone or with 1.0 μM of an AMPA antagonist (NBQX) were carried out generally as described in Example 1 for neuronal differentiation. […] The data also indicate that MKC-231 exerts some of its neurogenic effect as through the AMPA receptor activation."}, "male F344 rats [3]": {"test_system": "male F344 rats", "assay": "Novelty suppressed feeding in rat", "format": "in vivo", "details": "for change in latency to eat the food pellet: 21-day administration", "description": "BCI-540 was administered to male F344 rats by oral gavage once daily for 21 days (1.0 mg/kg/day, p.o.). Fluoxetine was administered by oral gavage once daily for 21 days (10 mg/kg/day, p.o.). BrdU was administered once daily for 5 days (days 9 to 14, 100 mg/kg/day, i.p.). Animals were tested after 21 days of drug administration.\nShown in FIG. 9 is the change in latency to eat compared to vehicle control (±SEM). The y-axis represents percent change compared to vehicle control. The x-axis indicates treatment. Vehicle is set to 100%. The black line indicates 100% of vehicle control."}, "Human Neural Stem Cells [4]": {"test_system": "Human Neural Stem Cells", "assay": "Toxic/trophic effect on human neural stem cells (Hoechst 33342 cell count)", "format": "cell-based", "details": "concentrations up to 31.6 μM", "description": "Experiments were carried out as described in Example 1, except that the cells were stained with a nuclear dye (Hoechst 33342).\nThe data therein is shown as a percentage of the basal media cell count. Concentrations that are toxic fall below 80% of the basal cell count. Trophic compounds show dose dependent increases in cell count."}, "male Sprague Dawley rats": {"test_system": "male Sprague Dawley rats", "assay": "Elevated plus maze (animal model of anxiety)", "format": "in vivo, rat", "description": "BCI-540 was administered to male Sprague Dawley rats by oral gavage once daily for 21 days (1.0 mg/kg/day, p.o.). As a positive control, the anxiolytic diazepam (1.5 mg/kg, i.p.) was administered one time, 30 minutes prior to testing.\nThe y-axis represents percent time on the open arm. The x-axis indicates treatment with vehicle (black bar), positive control diazepam (gray bar), and BCI-540 treated animals (black hatched bars) (n=15/group)."}, "male F344 rats [5]": {"test_system": "male F344 rats", "assay": "Hippocampal neurogenesis in rat (BrdU)", "format": "in vivo", "description": "BCI-540 was administered to male F344 rats by oral gavage once daily for 28 days (1.0 and 4.0 mg/kg/day, p.o.). BrdU was administered once daily for 5 days (days 9 to 14, 100 mg/kg/day, i.p.). Animals were sacrificed on day 28. Brains were removed and processed for evaluation of neurogenesis.\nThe y-axis represents percent change compared to vehicle control. The x-axis indicates treatment with vehicle set to 100% (black bar) and BCI-540 dosed at 1.0 and 4.0 mg/kg/day (black hatched bars). The black line indicates 100% of vehicle control."}, "hNSCs": {"test_system": "hNSCs", "assay": "Astrocyte differentiation of hNSCs (GFAP staining)", "format": "cell-based, human", "description": "Experiments were carried out as described in Example 1, except the positive control for astrocyte differentiation contained mitogen-free test media with positive control for astrocyte differentiation, and cells were stained with GFAP antibody."}, "[6]": {"test_system": "Human neural stem cells (hNSCs)", "assay": "Neuronal differentiation of human neural stem cells (TUJ-1 staining)", "format": "cell-based", "source_text": "Human neural stem cells (hNSCs) were isolated and grown in monolayer culture, plated, treated with varying concentrations of MKC-231 (test compound), and stained with TUJ-1 antibody, as described in U.S. Provisional Application No. 60/697,905 (incorporated by reference). Mitogen-free test media with a positive control for neuronal differentiation was used along with basal media without growth factors as a negative control.\nThe dose response curve of the neuronal positive control is included as a reference. The data is presented as a percent of neuronal positive control."}, "[7]": {"target": "acetylcholinesterase (AChE) (Homo sapiens, UniProt P22303)", "sequence (P22303 32-614, species assumed)": "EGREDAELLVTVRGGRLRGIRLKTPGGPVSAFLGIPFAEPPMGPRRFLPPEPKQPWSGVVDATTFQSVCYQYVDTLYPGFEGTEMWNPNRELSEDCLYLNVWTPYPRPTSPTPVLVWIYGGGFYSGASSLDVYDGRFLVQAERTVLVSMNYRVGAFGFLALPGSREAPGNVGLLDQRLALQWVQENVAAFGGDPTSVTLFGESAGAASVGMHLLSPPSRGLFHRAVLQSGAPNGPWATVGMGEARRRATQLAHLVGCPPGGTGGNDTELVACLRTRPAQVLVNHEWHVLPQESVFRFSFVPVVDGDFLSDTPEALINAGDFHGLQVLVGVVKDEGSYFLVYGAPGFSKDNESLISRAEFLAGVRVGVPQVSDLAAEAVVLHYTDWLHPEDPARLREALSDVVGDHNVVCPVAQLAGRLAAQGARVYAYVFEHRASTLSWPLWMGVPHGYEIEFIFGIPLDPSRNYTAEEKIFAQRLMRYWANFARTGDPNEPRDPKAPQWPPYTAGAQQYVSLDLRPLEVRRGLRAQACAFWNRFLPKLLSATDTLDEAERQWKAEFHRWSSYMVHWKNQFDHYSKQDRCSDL", "details": "cited from earlier work"}, "[8]": {"details": "cited from earlier work; for stability at room temperature and during storage: room temperature (about 25° C.), over time"}, "[9]": {"details": "1.0 mg/kg daily p.o. for 21 days"}}}
{"smiles": "Cc1o[nH]c(=O)c1CC(N)C(=O)O", "note": "(stereo not drawn) [AMPA, reference compound]", "values": [{"measurement": "effect of AMPA agonist on MKC-231 stimulated neuronal differentiation", "setting": "Human Neural Stem Cells [1]; 0.316 μM AMPA", "value": "enhances the stimulation of neuronal differentiation"}, {"measurement": "neuronal differentiation by AMPA alone", "setting": "Human Neural Stem Cells [1]; 0.32 μM AMPA alone (FIG. 6)", "value": "does not promote neuronal differentiation alone"}]}
{"smiles": "Cc1oc2nc3c(c(NC(=O)CN4CCCC4=O)c2c1C)CCCC3", "note": "[MKC-231, 2-(2-oxypyrrolidin-1-yl)-N-(2,3-dimethyl-5,6,7,8-tetrahydrofuro(2,3-b)quinolin-4-yl)acetoamide]", "values": [{"measurement": "EC50", "setting": "Human Neural Stem Cells [2]; Homo sapiens, Neural stem cell, with 1.0 μM NBQX (FIG. 7)", "value": "> 31.6", "unit": "µM"}, {"measurement": "decrease in latency to eat compared to vehicle control", "setting": "male F344 rats [3]; [9]", "value": 35, "unit": "%"}, {"measurement": "change in latency to eat the food pellet", "setting": "male F344 rats [3]", "value": "statistically significant decrease"}, {"measurement": "toxicity (cell count below 80% of basal cell count)", "setting": "Human Neural Stem Cells [4]", "value": "no toxicity"}, {"measurement": "increase in the time spent on the open arms", "setting": "male Sprague Dawley rats; [9]", "value": 20, "unit": "%"}, {"measurement": "time spent on the open arms", "setting": "male Sprague Dawley rats; chronic administration, 1.0 mg/kg/day p.o., 21 days", "value": "significant increase"}, {"measurement": "increase in new neurons within the granule cell layer of the dentate gyrus compared to vehicle control", "setting": "male F344 rats [5]; 1.0 mg/kg daily p.o. for 28 days", "value": 22, "unit": "%"}, {"measurement": "increase in new neurons within the granule cell layer of the dentate gyrus compared to vehicle control", "setting": "male F344 rats [5]; 4.0 mg/kg daily p.o. for 28 days", "value": 20, "unit": "%"}, {"measurement": "change in new neurons within the granule cell layer of the dentate gyrus", "setting": "male F344 rats [5]; 1.0 and 4.0 mg/kg daily for 28 days", "value": "statistically significant increase"}, {"measurement": "astrocyte differentiation above basal media values", "setting": "hNSCs; FIG. 2", "value": "no significant increase"}, {"measurement": "EC50 astrocyte differentiation", "setting": "hNSCs; percent of astrocyte positive control, basal media subtracted (FIG. 2)", "value": "undeterminable"}, {"measurement": "EC50", "setting": "Human Neural Stem Cells [1]; read-out: EC50 neuronal differentiation, MKC-231 in the presence of a fixed concentration AMPA", "value": 0.22, "unit": "µM"}, {"measurement": "EC50", "setting": "Human Neural Stem Cells [1]; average of multiple experiments (N=6) (FIG. 6), read-out: EC50 neuronal differentiation, MKC-231 alone", "value": 3.7, "unit": "µM"}, {"measurement": "EC50", "setting": "Human Neural Stem Cells [1]; with 0.316 μM AMPA agonist (AMPA) (FIG. 4), read-out: EC50 neuronal differentiation, MKC-231 in combination with AMPA", "value": 0.99, "unit": "µM"}, {"measurement": "neuronal differentiation above background levels", "setting": "[6]; FIG. 1", "value": "promoted neuronal differentiation above background levels"}, {"measurement": "EC50", "setting": "[6]; Homo sapiens, Neural stem cell, MKC-231 alone, percent of neuronal positive control, basal media subtracted (FIG. 1)", "value": 5.1, "unit": "µM"}, {"measurement": "AChE inhibitory activity", "setting": "[7]", "value": "does not have such inhibitory activity"}]}
{"smiles": "NS(=O)(=O)c1cccc2c1c([N+](=O)[O-])cc1nc(O)c(O)nc12", "note": "[NBQX, reference compound]", "values": [{"measurement": "effect of AMPA antagonist on MKC-231 stimulated neuronal differentiation", "setting": "Human Neural Stem Cells [2]; 1.0 μM NBQX", "value": "inhibits the stimulation of neuronal differentiation"}]}
{"smiles": "CN1C(=O)CN=C(c2ccccc2)c2cc(Cl)ccc21", "note": "[diazepam, reference compound]", "values": [{"measurement": "increase in time spent on the open arms", "setting": "male Sprague Dawley rats; single administration, 1.5 mg/kg i.p., 30 minutes prior to testing", "value": 12, "unit": "%"}]}
{"smiles": "CNCCC(Oc1ccc(C(F)(F)F)cc1)c1ccccc1", "note": "(stereo not drawn) [fluoxetine, reference compound]", "values": [{"measurement": "decrease in latency to eat compared to vehicle control", "setting": "male F344 rats [3]; 10.0 mg/kg daily p.o. for 21 days", "value": 38, "unit": "%"}, {"measurement": "change in latency to eat the food pellet", "setting": "male F344 rats [3]", "value": "statistically significant decrease"}]}
{"smiles": "Cc1oc2nc3c(c(NC(=O)CC4CNC(=O)C4)c2c1C)CCCC3", "note": "(stereo not drawn) [form A crystal, N-(2,3-dimethyl-5,6,7,8-tetrahydrofuro[2,3-b]quinolin-4-yl)-2-(2-oxopyrrolidin-4-yl)acetamide]", "values": [{"measurement": "stability at room temperature and during storage", "setting": "[8]", "value": "better stability"}, {"measurement": "stability in storage", "setting": "[8]", "value": "greater stability in storage than the form B crystal"}]}
{"smiles": "Cc1oc2nc3c(c(NC(=O)CC4CNC(=O)C4)c2c1C)CCCC3", "note": "(stereo not drawn) [form B crystal, N-(2,3-dimethyl-5,6,7,8-tetrahydrofuro[2,3-b]quinolin-4-yl)-2-(2-oxopyrrolidin-4-yl)acetamide]", "values": [{"measurement": "stability at room temperature and during storage", "setting": "[8]", "value": "lower stability"}, {"measurement": "stability in storage", "setting": "[8]", "value": "lower stability in storage than the form A crystal"}]}
